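Briefly, cells in 96-well plates were exposed to five compound concentrations for 48 h, and endpoints were estimated by linear interpolation. TGI marks complete inhibition of growth.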
Experiments:
Assay in all cases: growth of human tumour cells (NCI), 48 h
LOX IMVI melanoma = test system: LOX IMVI melanoma
MOLT-4 leukemia = test system: MOLT-4 leukemia
OVCAR-8 ovarian = test system: OVCAR-8 ovarian
K-562 leukemia = test system: K-562 leukemia
SF-539 CNS = test system: SF-539 CNS
SK-OV-3 ovarian = test system: SK-OV-3 ovarian
M14 melanoma = test system: M14 melanoma
A498 renal = test system: A498 renal
SR leukemia = test system: SR leukemia
CCRF-CEM leukemia = test system: CCRF-CEM leukemia
NCI-H23 lung = test system: NCI-H23 lung
A549 NSCLC = test system: A549 NSCLC
SNB-75 CNS = test system: SNB-75 CNS
HCC-2998 colon = test system: HCC-2998 colon
ACHN renal = test system: ACHN renal
OVCAR-4 ovarian = test system: OVCAR-4 ovarian
CAKI-1 renal = test system: CAKI-1 renal
NCI-H460 lung = test system: NCI-H460 lung
SK-MEL-5 melanoma = test system: SK-MEL-5 melanoma
HL-60(TB) leukemia = test system: HL-60(TB) leukemia

| SMILES | TGI (LOX IMVI melanoma) [µM] | TGI (MOLT-4 leukemia) [µM] | TGI (OVCAR-8 ovarian) [µM] | TGI (K-562 leukemia) [µM] | TGI (SF-539 CNS) [µM] | TGI (SK-OV-3 ovarian) [µM] | TGI (M14 melanoma) [µM] | TGI (A498 renal) [µM] | TGI (SR leukemia) [µM] | TGI (CCRF-CEM leukemia) [µM] | TGI (NCI-H23 lung) [µM] | TGI (A549 NSCLC) [µM] | TGI (SNB-75 CNS) [µM] | TGI (HCC-2998 colon) [µM] | TGI (ACHN renal) [µM] | TGI (OVCAR-4 ovarian) [µM] | TGI (CAKI-1 renal) [µM] | TGI (NCI-H460 lung) [µM] | TGI (SK-MEL-5 melanoma) [µM] | TGI (HL-60(TB) leukemia) [µM] |
| --- | --- | --- | --- | --- | --- | --- | --- | --- | --- | --- | --- | --- | --- | --- | --- | --- | --- | --- | --- | --- |
| [N-]=[N+]=Nc1c(Cl)c(Cl)nc2ccccc12 | > 100 | > 100 | > 100 | > 100 | > 100 | > 100 | > 100 | > 100 | > 100 | > 100 | > 100 | > 100 | > 100 | > 100 | > 100 | > 100 | 57.8 | > 100 | > 100 |  |
| COc1ccc(-c2c3c(n(C4OC(COC(C)=O)C(OC(C)=O)C(OC(C)=O)C4OC(C)=O)c(=S)c2C#N)CCC3)cc1 (centres undefined) | > 100 | > 100 |  | > 100 | > 100 | > 100 | > 100 |  | > 100 | > 100 | > 100 | > 100 | > 100 | > 100 | > 100 | > 100 | > 100 | > 100 | > 100 | > 100 |
| O=C(O)COc1ccc(C(=O)/C(SS/C(C(=O)c2ccc(OCC(=O)O)c(Cl)c2Cl)=C2\C=C(c3ccc(Cl)cc3)SS2)=C2/C=C(c3ccc(Cl)cc3)SS2)c(Cl)c1Cl | 15.3 | 12.6 | > 100 | 10.7 | 17.9 | > 100 | 26.3 | > 100 |  | 5.85 | 40.8 | 41.7 | 31 | 25.3 | 25.4 | 16.7 | > 100 | 35.6 | 48.1 | 2.1 |
| COc1ccc(C2=C(N)c3c(Cl)cccc3C2=O)cc1 | > 100 | > 100 | > 100 |  | > 100 | > 100 | > 100 | > 100 |  | > 100 | > 100 | > 100 | > 100 | > 100 | > 100 | > 100 | > 100 | > 100 | > 100 | > 100 |
| COc1ccc2nc3c([N+](=O)[O-])ccc(NCCCN(C)C)c3c(NCCCN(C)C)c2c1 | 3 | 1.26 | 2.9 | 5.89 |  | 4.14 | > 10 |  | 1.14 | 2.4 | 3.46 | 3.43 | 3.49 | 2.61 |  | 2.29 | 3.98 |  | 3.46 | 8.81 |
| CN(C)CCNC(=O)c1cccc2c(NC(CS)C(=O)O)c3ccccc3[n+](C)c12 (centres undefined) | > 100 | > 100 | > 100 | > 100 | > 100 | > 100 | > 100 | > 100 | > 100 |  | > 100 | > 100 | > 100 | > 100 | > 100 | > 100 |  | > 100 | > 100 |  |
| Cc1nc(N2N=C(c3ccc(Cl)cc3)CCC2=O)sc1[N+](=O)[O-] | > 100 | > 100 | > 100 | > 100 | > 100 | > 100 | > 100 |  | > 100 | > 100 | > 100 | > 100 | > 100 | > 100 | > 100 | > 100 | > 100 | > 100 | > 100 | > 100 |
| COc1cc2oc(-c3ccc4c(c3)OCO4)c(OC)c(=O)c2c(OC)c1O | > 100 | > 100 | > 100 | > 100 | > 100 | > 100 | > 100 | > 100 |  | > 100 | > 100 | > 100 | 97.6 | > 100 | > 100 | > 100 | > 100 | > 100 | > 100 | 84 |
| CCOC(=O)C(C(=O)OCC)c1ccc([N+](=O)[O-])o1 | 9.41 | 19.8 | 16.1 | > 30.7 | 35.9 | > 100 | 26.6 |  | > 26.4 | > 22.8 | 32.3 | 43.4 | 37.3 | 31.3 | 22.6 | 32.4 | 16.1 | 44.9 | 31.5 | > 22.3 |
| O[C@H]1[C@H](O)[C@@H](O)[C@@]2(O)CC[C@@H]1N2 | > 100 | > 100 | > 100 | > 100 | > 100 | > 100 | > 100 | > 100 | > 100 | > 100 | > 100 | > 100 | > 100 | > 100 | > 100 | > 100 | > 100 | > 100 | > 100 |  |
| CCSc1cc2c(cc1O)CC[C@@H]1[C@@H]2CC[C@]2(C)[C@@H](O)CC[C@@H]12 | 23 | 21.2 | 38.5 | 21 | 34.3 | 39.2 |  | 28.9 |  | 30.8 | 44.3 | 15.5 | 29.6 | 27.5 | 24.9 | 38.7 | 26.4 | 19.2 | 22.7 | > 100 |
| Cc1c2c(OCC(O)CN3CCN(c4ccccc4)CC3)nn(C)c(=O)c2c(C)n1-c1ccccc1 (centres undefined) |  | 88.9 | > 100 | 69.2 | 33.6 | > 100 | 30.7 | 58.6 |  | > 100 | 46.4 | 73.7 | 75.5 | 78.3 | 49.6 | > 100 | > 100 | 57.7 | 30.3 | 49.1 |
